These results are taken from article PMC10541198, “Specific quinone reductase 2 inhibitors reduce metabolic burden and reverse Alzheimer’s disease phenotype in mice” (The Journal of Clinical Investigation, 2023).

The structures appear in SMILES notation. Values joined by “and” are separate entries in the source; they are usually repeats but may differ in a detail not shown here. Equal entries are not always repeated.

The subject of the experiment is Amyloid β. Nature of the experiment: IHC of amyloid β in 5xFAD brain sections. The class given is in vivo, mouse. The settings on record: for Amyloid β normalized volume (individual mice): CA1, 5xFAD 1 month; for Figure 9B, IHC signal / Sup. Fig. 6-1B, IHC signal: individual animals; for Amyloid β vs vehicle: cortex, 5xFAD 1 month. An excerpt:
Following the behavioral experiments, we assessed brain pathologies associated with AD present in the 5xFAD mice ([37]). Therefore, 5 days following the last behavioral experiment, and 1 month after the start of YB-537 consumption, mice were sacrificed, and coronal brain sections were used for IHC. Since the CA1 region of the hippocampus is affected during AD pathogenesis ([37]), and this brain region is involved in the behavioral paradigms used here, we acquired images of CA1. This was done with an Olympus IX83 confocal microscope using the same settings, antibodies, and exposures in all mice. Images were analyzed using Imaris (Bitplane; see methods). For each mouse, 3 coronal sections were used per antibody. In each section, the same region of CA1 was acquired, using the same image frame size and resolution, at all possible depths of the section — using a Z-stack of the whole section — to allow measurement of the fluorescent antibody marker volume, which was normalized to the brain volume from which it was taken. First, we measured oxidative stress, as indicated by 4-HNE ([38]) (Abcam, ab48506).
Perfused and fixed brain slices were blocked with 10% normal donkey serum (DNS) and 0.2% triton (Sigma-Aldrich) in PBS. Antibodies, including 4-HNE (AbCam, ab48506), Iba1 (AbCam, ab5076), AT-8 (Thermo, MN1020), Amyloid β (AbCam, ab201060), diluted in PBS with 10% DNS, were incubated at 4°C overnight. Secondary antibodies including donkey-anti-goat Alexa Fluor 568 (AbCam, ab175704), donkey-anti-mouse Cy 5 (Jackson Immuno Research, 715-175-151), and donkey-anti-rabbit DyLight 488 (AbCam, ab98488) all diluted 1:500 in PBS with 1% BSA, were applied to the slices at RT for 2 hours the next day. Slices were mounted onto glass slides using DAPI containing Vectashield (H-1200). Images were taken using a confocal microscope (Olympus IX83). Three slices were used per mouse per antibody. Tiling images of the dorsal CA1 and cortex (Bregma: –1.58mm to –2.30mm) were taken using ×20 objective, acquiring a Z-stack of the whole section. Analysis of the images was done blind by an experimenter unaware of the experimental conditions or details, using Imaris (Bitplane) software. A surface reconstruction module was used to extract the data as volumes of the used markers (4-HNE, phospho-tau, amyloid β, GFAP, and Iba1). Marker volume and intensity were normalized to the corresponding brain volume. The normalized value was averaged for each triplicate and presented here. […]
Brains were then briefly removed and placed in chilled, 4% PFA for 48 h, f oll owe d by immersion in 30% sucrose in 0.1 M PBS for a furt her 48 h. Bra i ns wer e t h e n stored at -80°C, until t he y were sliced into 40µm coronal sections usinga Lei ca CM 1950cryostat. Sli ces were then washed x3 in PBS and bl oc ke d for 1 h at RT using 10% normal donkey serum (DNS) and 0.2% triton (Sigma-Aldrich) in PBS. Antibodies, including 4- HNE (1:500, AbCam, ab48506), Iba1 (1:2,000, AbCam, ab5076), GFAP (Abcam, ab53554), phospho- tau (1:1,000, Thermo, MN1020) and amyloid β (1:1,000, AbCam, ab201060) diluted in PBS with 10% DNS were incubated at 4°C overnight. The next day, the slices were washed x3 times in PBS, and secondary antibodies including donkey anti goat A l e x a Fluor 568 (AbCam, ab175704), donkey anti-mouse Cy 5 (Jackson Immuno Research, 715- 175- 151) and donkey anti-rabbit DyLight 488 (AbCam, ab98488) all diluted 1:500 in PBS with 1% BSA, were applied to the slices at RT for 2 h. Following the incubation, the slices were washed x3 times in PBS, mounted onto gl ass slides, were uniformly covered in DAPI containing Vectashield (H-1200) and coverslips were a dde d. […]

Consider `Cc1ccc(-c2cn3cccc(C)c3n2)cc1S(=O)(=O)N1CCNCC1` [YB-537], for which the “Amyloid β normalized volume (individual mice)” value reads like this: (Females) 0.0438 and 0.0503 and 0.0630 and 0.0517 and 0.0415 and 0.0377 and 0.0224; (Males) 0.0456 and 0.0411 and 0.0568 and 0.0482 and 0.0215 and 0.0315 and 0.0453 and 0.0211 and 0.0327; (Males + Females) 0.0438 and 0.0503 and 0.0630 and 0.0315 and 0.0453 and 0.0211 and 0.0327 and 0.0456 and 0.0411 and 0.0568 and 0.0482 and 0.0215 and 0.0517 and 0.0415 and 0.0377 and 0.0224. Further, the “Figure 9B, IHC signal” value (Cortex) is 0.0014 and 0.0009 and 0.0012 and 0.0011 and 0.0040 and 0.0050 and 0.0062 and 0.0018 and 0.0015; the “Figure 9B, IHC signal” value (Hippocampus) is 0.0022 and 0.0020 and 0.0026 and 0.0016 and 0.0029 and 0.0072 and 0.0052 and 0.0013. Also, the “Sup. Fig. 6-1B, IHC signal” value by setting is: (Females) 0.0046 and 0.0222 and 0.0056 and 0.0307 and 0.0209 and 0.0044 and 0.0060; (Males) 0.0033 and 0.0053 and 0.0092 and 0.0140 and 0.0194 and 0.0050 and 0.0040 and 0.0079 and 0.0183. Also, the “Amyloid β vs vehicle” value is listed as “unchanged” (females), “insignificantly reduced” (males) and “not significantly reduced” (total population).
